Data published in US20220387467A1, “USE OF SGLT2 INHIBITORS TO TREAT PRIMARY BILLIARY CHOLANGITIS” (AVOLYNT, priority 2019, published 2022).
Entries after “also recorded” stand apart in the source; their conditions may differ.

Columns and labels:
[1] = Plasma remogliflozin after oral immediate release (IR) tablet; assay type: in vivo
Source text: Oral dosage forms according to the invention are typically tablets or capsules. Tablets can be obtained by direct compression of the mixed components of a dosage form, including a therapeutically effective amount of an SGLT2 inhibitor, and selected excipients, like cellulose derivatives, metacrylates, chitosan, carboxymethylstarch, or mixtures thereof. For example, a compressed tablet according to the invention, can be prepared by granulating a SGLT2 inhibitor with microcrystalline cellulose and croscarmellose sodium with a water and povidone solution. The resulting granules are dried, milled, and then blended with mannitol, microcrystalline cellulose, and croscarmellose. The blend is lubricated with magnesium stearate and compressed. […] Indeed, Tmax for an IR remogliflozin etabonate oral dosage form according to the invention occurs at 1 hour, or less, following ingestion of the dosage form by a subject.

TIA mice = experiment: TIA mouse model of liver and biliary disease resembling PBC/PSC, H&E liver histology and survival; assay type: in vivo; conditions: for inflammation at the interface between the hepatic parenchyma and the portal tracts (interface hepatitis) / proliferation of bile ductules (bile ductular proliferation) / periportal and biliary inflammation: TIA mice at 11 weeks, H&E liver sections, vs untreated TIA mice; for inflammation at the interface between the hepatic parenchyma and the portal tracts (interface hepatitis): 0.03% in chow for 7 weeks; for proliferation of bile ductules (bile ductular proliferation) / periportal and biliary inflammation: 0.03% in chow from 4 weeks of age
Source text: The following Examples describe the utilization of a murine model of liver damage to assess the effectiveness of a treatment regimen based on the oral administration of remogliflozin etabonate. The murine model is based on mice that are deficient for the expression of tumor necrosis factor alpha (“TNFα”), interleukin 10 (“IL-10”), and activation-induced cytidine deaminase (“AICDA”). As the mice are deficient in TNF, IL-10, and AICDA, they are referred to, herein, as “TIA” mice. These liver outcomes in these animals also closely resemble that of PBC.
Moreover, as AICDA is required for immunoglobulin (“Ig”) class switching, TIA mice lack IgG and IgA, a phenotype analogous to humans with hyper-IgM syndrome. Therefore, with the combination of AICDA deficiency with the risk factors associated with TNFα and IL-10 deficiencies, TIA mice also develop liver and biliary inflammation reminiscent of PSC and PBC symptoms in humans. Accordingly, the TIA model is useful for investigating mechanisms that act early in PBC pathogenesis, as well as treatments that can prevent progression to PBC and PSC.
Example 1. Orally-administered remogliflozin etabonate reduces inflammatory cell infiltration, bile ductular proliferation, and interface hepatitis in TIA mice. TIA mice were created by first breeding TNFα knock out (“KO”) C57BL/6 mice, (strain B6.129S-Tnf^tm1Gkl/J, stock #005540, Jackson Laboratories, Bar Harbor, Me.) with IL-10 KO mice (strain B10.129P2(B6)-IL10^tm1Cgn/J, Stock No. 002251, Jackson Laboratories) to produce a population of mice that were deficient in TNFα and IL-10. Because mice with a TNFα −/− and IL10 −/− genotype spontaneously develop inflammatory bowel disease (“IBD”) (Hale 2012), a condition associated with poor breeding success (Nagy 2016), the mice needed for further breeding to generate an AICDA population, were generated by breeding offspring with a TNFα and IL10+/− genotype with AICDA −/− mice, which were obtained from Dr. Tasuku Honjo (Muramatsu 2000)), to produce a population of TNFα −/−, IL10 −/−, and AICDA+/−(“TI-hetA”) males and females. In turn, TI-hetA pairs were bred to generate populations that were 25% TIA mice, and 50% non-colitis-susceptible TI-hetA littermates that could be used as control populations. All populations were exposed to the same environment from birth. The mice were housed in polycarbonate micro-isolator cages, in individually ventilated racks, under barrier conditions that excluded all known pathogens, including Helicobacter pylori and Norovirus. Mice had ad libitum access to water, and to a standard diet (PicoLab Mouse Diet 20/5058, LabDiet, St. Louis, Mo., USA).
At four (4) weeks of age, TIA (40) and TI-hetA (22) mice were randomized into experimental groups that received either a standard diet (20 TIA and 12 het), or a standard diet formulated 0.03% remogliflozin etabonate (20 TIA and 10 het) (Avolynt Inc., USA). The mice were maintained on this diet for seven (7) weeks. Body weights were obtained three (3) times, weekly, to assess the general health of mice, and to track the development of inflammatory bowel disease (IBD). Glycosuria in the experimental groups was assessed by applying freshly voided urine directly to the glucose test patch on an Accutest® URS-10 urinary reagent test strips (Jant Pharmaceutical Corp., Encino, Calif., USA). Mice were humanely euthanized before reaching the experimental endpoint, of eleven (11) weeks of age, if they lost >15% body weight, or developed rectal prolapse.
To characterize biliary lesions in TIA mice at the end of the 7 week treatment period, liver tissue was obtained from the remogliflozin-treated, and untreated groups, for histologic examination. The excised liver tissue was fixed in Carnoy's fixative solution, and processed into paraffin blocks. The paraffin blocks were sectioned, and stained with Hematoxylin and eosin (H&E) for pathologic analysis. The H&E-stained sections were scored by an American Board of Pathology-certified pathologist. […]

CCOC(=O)OC[C@H]1O[C@@H](Oc2nn(C(C)C)c(C)c2Cc2ccc(OC(C)C)cc2)[C@H](O)[C@@H](O)[C@@H]1O [remogliflozin etabonate]
Tmax ([1]; IR remogliflozin etabonate oral dosage form, following ingestion): ≤ 1 h
remogliflozin plasma concentration after clearance ([1]; compressed IR tablet, 350 mg remogliflozin etabonate, oral, after 3 hrs): 40 ng/mL
maximum remogliflozin plasma concentration (Cmax) ([1]; compressed IR tablet, 350 mg remogliflozin etabonate, oral, at 1 hr post-ingestion): 160 ng/mL
number of TIA mice that required early euthanasia (TIA mice; Remo group versus control group, 7 week study): no statistical difference
early death (TIA mice; Remo group versus control group, not statistically significant): trend toward decreased early death
inflammation at the interface between the hepatic parenchyma and the portal tracts (interface hepatitis) (TIA mice): reduces
inflammation at the interface between the hepatic parenchyma and the portal tracts (interface hepatitis) (TIA mice; listed as remogliflozin): less inflammation
proliferation of bile ductules (bile ductular proliferation) (TIA mice): reduces
periportal and biliary inflammation (TIA mice; listed as Remo): decrease in periportal and biliary inflammation
proliferation of bile ductules (bile ductular proliferation) (TIA mice; listed as Remo): decrease in proliferation of bile ductules
periportal and biliary inflammation (TIA mice; listed as remogliflozin): less inflammation
proliferation of bile ductules (bile ductular proliferation) (TIA mice; listed as remogliflozin): less proliferation of bile ductiles
development and progression of liver and biliary disease (TIA mice; TIA mice, 0.03% remogliflozin etabonate in diet for 7 weeks from 4 weeks of age, vs standard diet): prevents the progression of PBC disease pathology; also recorded: markedly less development and progression of liver and biliary disease
inflammatory cell infiltration (TIA mice; TIA mice, oral, 0.03% in diet for 7 weeks): reduces
